Where two headings read alike, the source gives them in different places.
Assays:
mice = settings: ref Gonzalez-Maeso et al. 2007; Halberstadt and Geyer 2013; cited from earlier work
human 5-HT2A receptor = human 5-HT2A receptor (Homo sapiens, UniProt P28223); set-up: expressed in transfected cells; host or cells: HEK 293 (transient), membrane preparations; settings: read-out: 5-HT2A Ki; [3H]ketanserin; ref Luethi et al. (2018); cited from earlier work
male C57BL/6 J mice = assay: Head-twitch response (HTR), magnetometer coil recording; type: in vivo; settings: for HTR Counts (Mean ± SEM): 30 min; for ED50: Mus musculus, 0.5 h, HTR, IP, 30 min recording, male C57BL/6 J mice; for reduction of HTR potency versus 2C-T-7: replacement of the 4-n-propylthio group of 2C-T-7; for maximum number of head twitches (mean ± SEM): during the 30-min assessment period
Description: Male C57BL/6 J mice (Jackson Laboratory, Bar Harbor, ME) were housed in a vivarium at the University of California San Diego (UCSD), which is an AAALAC-approved animal facility that complies with Federal and State requirements for care and treatment of laboratory animals. The mice (6–8 weeks old) were housed in a climate-controlled room with a reversed light-cycle (lights on at 19:00 h, off at 07:00 h) up to 4 animals per cage. Food and water were provided ad libitum, except during behavioral testing which occurred between 10:00 and 18:00 h. All experiments were conducted according to NIH guidelines and were approved by the UCSD animal care committee.
Head movement was recorded using a head-mounted magnet and a magnetometer coil (Halberstadt and Geyer [2013]). Briefly, mice were anesthetized, a small incision was made in the scalp, and a neodymium magnet was attached to the dorsal surface of the cranium using dental cement. Following a 1–2-week recovery period, behavioral experiments were conducted in a well-lit room with at least 7 days between sessions to avoid any carryover effects. Mice were treated with vehicle or test compound and then placed in a glass cylinder surrounded by a magnetometer coil and activity was recorded for 30 min. All test substances were administered IP dissolved in saline using an injection volume of 5 mL/kg. Coil voltage was filtered (5–10 kHz lowpass), digitized (20 kHz sampling rate), and saved to disk using a Powerlab/8SP with LabChart v 7.3.2 (ADInstruments, Colorado Springs, CO). To detect head twitches, events in the recordings were converted into scalograms using a wavelet transform and then the images were classified using a multistage approach combining the deep convolutional neural network (CNN) ResNet-50 with a support vector machine (SVM) algorithm (Halberstadt [2020]). HTR counts were analyzed using a one-way Welch analysis of variance (ANOVA). Post hoc pairwise comparisons were performed using Dunnett’s test. […] Median effective doses (ED50 values) and 95% confidence intervals were calculated using nonlinear regression (Prism ver. 9.0.2, GraphPad Software Inc, San Diego, CA, USA).

humans = settings: cited from earlier work; for Human potency range: dose range active as psychedelic in humans; for Human active dose range: ref Shulgin and Shulgin 1991
[1] = read-out: ED50 µmol/kg (95% CI)

human 5-HT2A receptor, sequence (P28223 whole entry): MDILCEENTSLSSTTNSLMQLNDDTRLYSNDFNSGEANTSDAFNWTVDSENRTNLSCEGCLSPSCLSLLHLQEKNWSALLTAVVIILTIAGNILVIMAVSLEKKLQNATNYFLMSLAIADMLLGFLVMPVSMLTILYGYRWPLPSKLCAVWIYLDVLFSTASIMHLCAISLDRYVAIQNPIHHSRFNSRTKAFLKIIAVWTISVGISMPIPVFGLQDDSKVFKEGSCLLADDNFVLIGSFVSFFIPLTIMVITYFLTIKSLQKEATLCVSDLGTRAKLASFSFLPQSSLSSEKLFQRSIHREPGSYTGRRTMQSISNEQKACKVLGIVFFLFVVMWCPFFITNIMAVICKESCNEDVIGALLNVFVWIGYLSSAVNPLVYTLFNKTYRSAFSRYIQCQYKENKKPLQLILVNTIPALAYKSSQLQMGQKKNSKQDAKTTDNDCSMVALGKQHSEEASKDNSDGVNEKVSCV

Compound	Ki (human 5-HT2A receptor) [nM]	HTR Counts (Mean ± SEM) (male C57BL/6 J mice; 0.3 mg/kg IP)	HTR Counts (Mean ± SEM) (male C57BL/6 J mice; 1 mg/kg IP)	HTR Counts (Mean ± SEM) (male C57BL/6 J mice; 3 mg/kg IP)	HTR Counts (Mean ± SEM) (male C57BL/6 J mice; 10 mg/kg IP)	ED50 (male C57BL/6 J mice; [1]) [µmol/kg]	ED50 (male C57BL/6 J mice; read-out: ED50 mg/kg (95% CI)) [mg/kg]	HTR Counts (Mean ± SEM) (male C57BL/6 J mice; 1.5 mg/kg IP)	HTR Counts (Mean ± SEM) (male C57BL/6 J mice; 6 mg/kg IP)	HTR Counts (Mean ± SEM) (male C57BL/6 J mice; 12 mg/kg IP)	also measured
CCN(CC)C(=O)[C@@H]1C=C2c3cccc4[nH]cc(c34)C[C@H]2N(C)C1 [LSD, lysergic acid diethylamide, reference compound]	–	–	–	–	–	–	–	–	–	–	induction of HTR (in words) (mice): induces the HTR
C=C(C)CSc1cc(OC)c(CCN)cc1OC.Cl [Compound 2C-T-3, 2,5-dimethoxy-4-methallylthiophenethylamine hydrochloride]	11	11.3 ± 3.6	26.2 ± 3.4	67.6 ± 5.4	67.8 ± 7.5	6.12	1.86	–	–	–	HTR Counts (Mean ± SEM) (male C57BL/6 J mice; 30 mg/kg IP): 2.2 ± 1.4; reduction of HTR potency versus 2C-T-7 (male C57BL/6 J mice): more than 50%
CCN(CC)C(=O)N[C@H]1C=C2c3cccc4[nH]cc(c34)C[C@H]2N(C)C1 [lisuride, reference compound]	–	–	–	–	–	–	–	–	–	–	induction of HTR (in words) (mice): does not induce the response
CCCCSc1cc(OC)c(CCN)cc1OC.Cl [Compound 2C-T-19, 4-n-butylthio-2,5-dimethoxyphenethylamine hydrochloride]	6.9	14.2 ± 3.4	19.8 ± 1.1	26.6 ± 9.4	12.0 ± 4.1	3.27	1	–	–	–	maximum number of head twitches (mean ± SEM) (male C57BL/6 J mice): 26.6 ± 9.4
C=CCSc1cc(OC)c(CCN)cc1OC.Cl [Compound 2C-T-16, 4-allylthio-2,5-dimethoxyphenethylamine hydrochloride]	9.2	–	–	101.6 ± 20.4	–	5.8	1.68	49.6 ± 11.1	100.6 ± 9.6	51.2 ± 18.3	HTR potency relative to 2C-T-7 (male C57BL/6 J mice; mouse, in vivo): about 50%; reduction of HTR potency versus 2C-T-7 (male C57BL/6 J mice): more than 50%
COc1cc(CC(C)N)cc(OC)c1OC (stereo not drawn) [TMA, 3,4,5-trimethoxyamphetamine, reference compound]	–	–	–	–	–	–	–	–	–	–	Human potency range (humans; ref Shulgin and Shulgin (1991)): 100 to 250 mg
COc1cc(SCC(F)F)c(OC)cc1CCN.Cl [Compound 2C-T-21.5, 4-(2,2-difluoroethylthio)-2,5-dimethoxyphenethylamine hydrochloride]	14	–	–	39.4 ± 7.2	–	9.97	3.13	26.0 ± 5.4	85.6 ± 9.8	40.4 ± 13.0	Human potency range (humans; ref Trachsel et al. (2013)): 12–30 mg ^[6]; Human active dose range (humans; p.o., Trachsel et al. 2013): 12 to 30 mg
COc1cc(SCCCF)c(OC)cc1CCN.Cl [Compound 2C-T-28, 4-(3-fluoropropylthio)-2,5-dimethoxyphenethylamine hydrochloride]	17	7.4 ± 2.0	25.4 ± 4.1	42.0 ± 6.1	27.2 ± 7.4	3.49	1.08	–	–	–	Human active dose range (humans; p.o., Trachsel et al. 2013): 8 to 20 mg
COc1cc(SC)c(OC)cc1CCN.Cl [Compound 2C-T, 2,5-Dimethoxy-4-methylthiophenethylamine hydrochloride]	49	–	–	49.3 ± 3.1	–	13.8	3.65	22.4 ± 5.9	61.0 ± 4.7	97.2 ± 8.1	Human potency range (humans; ref Shulgin and Shulgin (1991)): 60–100 mg ^[5]; Human active dose range (humans; Shulgin et al. 1991): 60 to 100 mg; HTR Counts (Mean ± SEM) (male C57BL/6 J mice; 24 mg/kg IP): 64.8 ± 6.0; maximum number of head twitches (mean ± SEM) (male C57BL/6 J mice): 97.2 ± 8.1
